± gives the expanded uncertainty stated by the source.
Legend:
[1] = Crystal; DTA
[2] = Molar enthalpy of transition or fusion; details: Crystal; DSC

Row | Normal melting temperature [1] [°C] | Molar enthalpy of transition or fusion [2] [kcal/mol] | SMILES
1 | 96.40 ± 0.5 | 6.34 ± 0.182 | CCCOC(=O)c1ccc(O)cc1 [propyl 4-hydroxybenzoate]
2 | 115.50 ± 0.5 | 6.16 ± 0.179 | CCOC(=O)c1ccc(O)cc1 [ethyl 4-hydroxybenzoate]
